US11530181B2, “IL-6 inhibitors and methods of treatment” (University of Florida Research Foundation, Incorporated, priority 2018, dated 2022)

Assays:
Assay type in all cases: cell-based, human
[1] = test system: multiple myeloma cell line U266; test: Cell viability assay, U266; details: for IC50: Homo sapiens, U-266, U266, 72 h; for inhibitory effect compared to parent compound LLM4: U266, 25 μM, 48 and 72 hours
Description: (§1) Cell viability was evaluated by using the MTT assay in triple replicates in one experiment and repeated for three times. Cancer cells were seeded in 96-well plates at a density of 3,000 cells per well. The cells were incubated at 37° C. for a period of 24 hours. Escalating concentrations of IL-6/gp130 inhibitors were added in triplicate to the plates in the presence of 10% FBS. After incubation for 48 or 72 hours, a stock solution of MTT (0.5 mg/ml) was then added to each well containing the treated cells, followed by incubation at 37° C. for 3 h. After removal of medium, the MTT dye was dissolved with spectrophotometric grade DMSO and the absorbance was read at 570 nm. The IC50 value is determined by interpolation based on the absorbance value halfway between positive and negative controls. In the experiment of LLM4 showing higher efficacy in cancer cells with higher levels of IL-6, instead of using medium with 10% FBS, DMEM with 0% FBS was used in order to eliminate the influence of trace amounts of growth factors and cytokines in FBS.
It was reported in multiple myeloma cell line U266 that IL-6 is also elevated and of great importance for cancer progression [Jernberg W, Pettersson M, Carlsson M, et al. Increase in interleukin 6 (IL-6) and IL-6 receptor expression in a human multiple myeloma cell line, U-266, during long-term in vitro culture and the development of a possible autocrine IL-6 loop 1. Leukemia. 1992, 4, 310-318]. These novel IL-6/gp130 inhibitors were tested in U266 cells at a concentration of 25 μM for an incubation time of 48 and 72 hours. MDL16 and LLM4 were used as control compounds.

[2] = test system: IL-6 induced STAT3 phosphorylation; test: Western blot, IL-6 induced STAT3 phosphorylation in MCF7
Description: Cells were harvested and lysed in cold radioimmunoprecipitation assay (RIPA) lysis buffer containing proteasome inhibitor cocktail and phosphatase inhibitor cocktail. The protein concentrations were determined using the BCA Protein Assay kit. After adding the loading buffer and boiling at 95° C. for 10 minutes, equivalent amounts of proteins were loaded on and separated by SDS-PAGE, and then were transferred to PVDF membranes. Membranes were probed with primary antibodies (1:1000) against phospho-STAT3 (Tyr705), STAT3, phospho-STAT1 (Tyr701), STAT1, phospho-STAT6 (Tyr 641), STAT6, and GAPDH, respectively, and horseradish peroxidase (HRP)-conjugated secondary antibody (1:10000) (Cell Signaling Technology, Beverly, Mass.). Membranes were analyzed using Enhanced Chemiluminescence Plus reagents and either scanned with the Storm Scanner (Amersham Pharmacia Biotech, Inc., Piscataway, N.J.) or imaged with ChemiDoc MP imaging system (Bio-Rad, Hercules, Calif.). For cytokine induction of STAT3 phosphorylation, MCF-7 breast cancer cells were seeded in 10 cm plates (1 million cells per plate) and allowed to adhere overnight followed by serum-starvation. […] After designated hours, LLM-418 treated and untreated cells were stimulated by IL-6, LIF, and OSM (50 ng/mL). The cells were harvested after 30 minutes and analyzed by Western blot.
MCF7 breast cancer cells were seeded in 10 cm plates (1 million cells per plate) and allowed to adhere overnight. The following day, the cells were serum-starved. The cells were then left untreated or treated with LLM4 (5-20 μM). After designated hours, the LLM4 treated and untreated cells were stimulated by IL-6, LIF, OSM, CNTF, CT-1, IL-11, IL-4 or INF-γ (50 ng/ml). The cells were harvested after 30 minutes and analyzed by western blotting.

[3] = test system: BxPC-3 pancreatic cancer cell line; test: MTT cell viability assay, BxPC-3; details: for IC50: Homo sapiens; for inhibitory effect compared to parent compound LLM4: BxPC-3, 25 μM, 48 hours
Description: (§2) Human breast cancer cell lines MCF7, MDA-MB-231 and SUM159 were maintained in Dulbecco's modified Eagle medium (DMEM). Human pancreatic cancer cell line BxPC-3 was maintained in RPMI 1640 medium. Human pancreatic cancer cell line Capan-1 was maintained in Iscove's Modified Dulbecco's Medium (IMEM). All media were supplemented with 10% FBS and 1% penicillin/streptomycin, and cells were incubated in a humidified 37° C. incubator with 5% CO2. PE/CA-PJ49 cell line was purchased from external sources and maintained according to manufacturer's protocol.
as §1

[4] = test system: SUM159 breast cancer cell line; test: MTT cell viability assay, SUM159; details: for IC50: Homo sapiens; for inhibitory effect compared to parent compound LLM4: SUM159, 25 μM, 48 hours
Description: as §2
as §1, with “controls.” for “controls. In the experiment of LLM4 showing higher efficacy in cancer cells with higher levels of IL-6, instead of using medium with 10% FBS, DMEM with 0% FBS was used in order to eliminate the influence of trace amounts of growth factors and cytokines in FBS.”

[5] = MCF7, 1-4 μM, 5 h, IL-6 50 ng/ml

IC50 [1] [nM]	IC50 ([3]; BXPC-3, 48 h) [µM]	IC50 ([3]; BxPC-3, text b401) [µM]	IC50 ([4]; SUM159, 48 h) [nM]	IC50 ([4]; SUM159, SUM159 human breast cancer cell line, MTT) [nM]	IC50 ([3]; BxPC-3, Table 7) [µM]	IC50 ([4]; SUM159, SUM159, Table 7) [nM]	SMILES	inhibition of IL-6 induced STAT3 phosphorylation ([2]; MCF7, 15 μM, 2, 3 and 4 hours)	inhibition of STAT3 phosphorylation induced by IL-6 ([2]; MCF7, 20 μM)	amount of P-STAT3 stimulated by IL-6 ([2]; MCF7, 5-20 μM, 5 h, IL-6 50 ng/ml, western blot)	phosphorylation of STAT3 induced by IL-6 ([2]; MCF7, treatment with 10 LLM4)	inhibitory effect compared to parent compound LLM4 [1]	inhibition of IL-6 induced STAT3 phosphorylation [2, 5]	inhibitory effect compared to parent compound LLM4 [3]	inhibitory effect compared to parent compound LLM4 [4]	inhibition of IL-6 induced STAT3 phosphorylation ([2]; MCF7, 4 μM, 2, 3 and 4 hours)
10900 ± 1500	10.9 ± 5.7	3.9	14500 ± 3500	17000 ± 5500	–	–	O=C(Nc1cc(F)ccc1-n1cccc1)c1ccc(OCCCN2CCCCC2)cc1 [LLM4, N-(5-fluoro-2-(1H-pyrrol-1-yl)phenyl)-4-(3-(piperidin-1-yl)propoxy)benzamide]	inhibit IL-6 induced STAT3 phosphorylation quite effectively	almost complete inhibition	decreased with increasing concentrations	Significant reduction	–	–	–	–	–
1900	8.3	–	2800	–	8.3	2800	O=C(Nc1cccc(OCCN2CCCCC2)c1)Nc1cccc(-c2ccn[nH]2)c1 [LLM414, 1-(3-(1H-pyrazol-5-yl)phenyl)-3-(3-(2-(piperidin-1-yl)ethoxy)phenyl)urea]	–	–	–	–	greater inhibitory effects	inhibited STAT3 phosphorylation stimulated by IL-6 in MCF7 cells in a dose dependent manner	greater inhibitory effect	greater inhibitory effect	–
1200	1.2	–	1700	–	1.2	1700	O=C(Nc1ccccc1-c1ccn[nH]1)c1ccc(OCCN2CCCCC2)cc1 [LLM418, N-(2-(1H-pyrazol-5-yl)phenyl)-4-(2-(piperidin-1-yl)ethoxy)benzamide]	–	–	–	–	greater inhibitory effects	inhibited STAT3 phosphorylation stimulated by IL-6 in MCF7 cells in a dose dependent manner	greater inhibitory effect	greater inhibitory effect	inhibit IL-6 induced STAT3 phosphorylation quite effectively
